From US20260200926A1, “TREM2 MODULATORS” (Muna Therapeutics ApS, priority 2022, published 2026)
Like-named read-outs stand apart in the source and are kept apart here.

Molecular target: T1, Human TREM2 (Homo sapiens, UniProt Q9NZC2)
T1 construct: expressed in transfected cells
Experiment: Human TREM2 activity: cellular phosphorylation of Syk (AlphaLISA SureFire Ultra p-SYK) in HEK293/DAP12+TREM2 stable cell line
Type: cell-based
Conditions: for Emax: HEK293, read-out: Emax; for EC50: phospho-Syk AlphaLISA signal, HEK293/DAP12+TREM2 cells, concentration giving 50% of maximal response, read-out: EC50
In short: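 The read-out was p-Syk (Tyr525/526), measured by AlphaLISA in lysates of a stable HEK293/DAP12+TREM2 clone. Cells (10,000/well, plated the day before) received compound for 30 min at 37 °C. Dosing used 8 points in quadruplicate, top 100 μM with 1:6 dilution, 0.5% final DMSO.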

[1] = maximal response relative to reference agonist example 1B (remaining examples)

T1 sequence (Q9NZC2 19-230): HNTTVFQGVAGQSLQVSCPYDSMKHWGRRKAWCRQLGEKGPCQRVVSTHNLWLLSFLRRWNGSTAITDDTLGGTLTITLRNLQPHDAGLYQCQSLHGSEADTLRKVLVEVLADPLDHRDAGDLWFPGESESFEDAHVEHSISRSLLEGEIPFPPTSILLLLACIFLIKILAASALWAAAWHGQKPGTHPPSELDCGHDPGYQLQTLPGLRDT
T1 sequence (O43914 22-113 partner): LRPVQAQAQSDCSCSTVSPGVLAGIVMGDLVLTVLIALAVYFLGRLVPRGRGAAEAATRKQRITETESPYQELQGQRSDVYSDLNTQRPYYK

Emax [1] [%]	EC50 [nM]	Emax (maximal response relative to reference agonist human TREM2 MAB1828 (examples 1, 1A and 1B)) [%]	Structure (SMILES)
75 to 110	1 to 10		Cc1cc2c(-c3ccc(Cl)cc3F)nc(N3CCOC(c4cnn(C)c4)C3)nc2c(=O)n1C (stereo not shown) [Example 114, 4-(4-chloro-2-fluorophenyl)-6,7-dimethyl-2-(2-(1-methyl-1H-pyrazol-4-yl)morpholino)pyrido[3,4-d]pyrimidin-8 (7H)-one]
< 75	10 to 100		Cc1nc2c(-c3ccc(F)cc3F)nc(N3C[C@@H](c4cnn(C5CC5)c4)O[C@@H](C)C3)nc2c(=O)n1C (single isomer, unassigned) [Example 177A]
75 to 110	> 1000		Cc1nc2c(-c3ccc(Cl)cc3F)nc([C@H]3CCO[C@@H](c4cnn(C)c4)C3)nc2c(=O)n1C (single isomer, unassigned) [Example 68]
75 to 110	1 to 10		Cc1cc([C@H]2CN(c3nc(-c4ccc(Cl)cc4F)c4nc(C)n(C)c(=O)c4n3)CCO2)ccn1 (single isomer, unassigned) [Example 23B]
75 to 110	< 1		Cc1cc([C@@H]2CN(c3nc(-c4ccc(Cl)cc4F)c4nc(C)n(C)c(=O)c4n3)C[C@H](C)O2)ccn1 (single isomer, unassigned) [Example 176A]
75 to 110	< 1		Cc1cc([C@H]2CN(c3nc(-c4ccc(C(F)(F)F)cc4F)c4nc(C)n(C)c(=O)c4n3)CCO2)ccn1 (single isomer, unassigned) [Example 21B]
75 to 110	100 to 1000		Cc1nc2c(-c3ccc(Cl)cc3F)nc(N3CCO[C@@H](c4cnn(C(F)(F)F)c4)C3)nc2c(=O)n1C (single isomer, unassigned) [Example 107B]
	10 to 100	75 to 110	Cc1nc2c(-c3ccc(Cl)cc3F)nc(N3CCOC(c4cnn(C)c4)C3)nc2c(=O)n1C (stereo not shown) [Example 1, 8-(4-chloro-2-fluorophenyl)-2,3-dimethyl-6-(2-(1-methyl-1H-pyrazol-4-yl)morpholino)pyrimido[5,4-d]pyrimidin-4 (3H)-one]

The remaining lines, values behind:

Structure (SMILES)	Emax [1] [%]	EC50 [nM]	Emax (maximal response relative to reference agonist human TREM2 MAB1828 (examples 1, 1A and 1B)) [%]
Cc1nc2c(-c3ccc(Cl)cc3F)nc([C@]34CCO[C@H](c5cnn(C6CC6)c5)[C@H]3C4)nc2c(=O)n1C (single isomer, unassigned) [Example 116A]	< 75	100 to 1000	
Cc1nc2c(-c3ccc(C(F)(F)F)nc3)nc([C@@H]3CCO[C@H](c4cnn(C)c4)C3)nc2c(=O)n1C (single isomer, unassigned) [Example 88A]	< 75	> 1000	
Cc1nc2c(-c3cc(F)c(F)cc3F)nc(N3C[C@H](c4cnn(C)c4)OC4(CC4)C3)cc2c(=O)n1C (single isomer, unassigned) [Example 146B]	< 75	> 1000	
Cn1c(C(F)(F)F)nc2c(-c3ccc(F)cc3F)nc([C@H]3CCO[C@@H](c4cnn(C5CC5)c4)C3)nc2c1=O (single isomer, unassigned) [Example 196B]	< 75	10 to 100	
Cc1nc2c(-c3ccc(C(F)(F)F)cc3F)nc([C@H]3CCO[C@@H](c4cnn(C5CC5)c4)C3)cc2c(=O)n1C (single isomer, unassigned) [Example 153B]	< 75	100 to 1000	
Cc1cc([C@H]2CN(c3cc4c(=O)n(C)c(C(F)(F)F)nc4c(-c4ccc(F)cc4F)n3)C[C@@H](C)O2)ccn1 (single isomer, unassigned) [Example 189B]	75 to 110	100 to 1000	
Cc1nc2c(-c3ccc(C(F)(F)F)cc3F)nc(N3CCO[C@H](c4cnn(C5CC5)c4)C3)cc2c(=O)n1C (single isomer, unassigned) [Example 132A]	75 to 110	1 to 10	
Cc1nc2c(-c3ccc(Cl)cc3F)cc(N3C[C@H](c4cnn(C)c4)OC(C)(C)C3)nc2c(=O)n1C (single isomer, unassigned) [Example 142B]	75 to 110	10 to 100	
Cc1nc2c(-c3cc(F)c(F)cc3F)nc(N3CCO[C@H](c4cnn(C)c4)C3)cc2c(=O)n1C (single isomer, unassigned) [Example 130B]	< 75	100 to 1000	
